Reference: patent publication US6762160B2, “Composition for removing biofilms comprising a detergent and a salt forming acid” (Universite de Montreal, priority 1998, dated 2004)
Entries after “also recorded” stand apart in the source; their conditions may differ.

Assays:
[1] = system: dental unit waterlines bacteria; assay: Antibacterial activity: growth in R2Am medium after disinfection of tubings;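 further: disinfected tubing pieces kept 7 days at room temperature in R2Am medium, then scored for presence or absence of bacterial growth by absorbance at 590 nm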
Experimental: To test the antibacterial activity, we used the same setup as above. After the 1 or 18 hour incubation, tubings were rinsed with sterile water. Pieces of tubings were dropped in sterile test tubes containing 4 ml of R2Am medium. Test tubes were capped and incubated for 7 days at room temperature. […] Data were recorded as presence or absence of growth with a spectrophotometer at λ=590 nm.

[2] = system: mature biofilms on lumen of dental unit waterlines tubings; assay: Biofilm removal from dental unit waterline tubing pieces, binocular microscope 40x, arbitrary scale; assay type: cell-based, dental unit waterlines bacteria; details: for detergent capable of dislodging biofilms: different types of detergents tried; on RESULTS AFTER DISINFECTION 1 hour (biofilm scale): key: −: no biofilm; ++++: + ++ + : no significant removal of film; on RESULTS AFTER DISINFECTION 18 hours (biofilm scale): key: −: no biofilm; ++++: + ++ + : no significant removal of film
Experimental: Two-cm long pieces of dental unit waterlines tubings were used. These tubings were taken from functional dental units installed at the faculty of dentistry of the University of Montreal. […] The pieces were sectioned longitudinally with a sterile scalpel blade to expose the biofilm. Another series of tubings was left untouched. Sections of tubings were placed in sterile 5 ml disposable test tubes containing solutions to be tested.
After 1 or 18 hours without agitation at room temperature, tubings were rinsed three times with sterile water.

[3] = selected acid 1% with H2O2 5%, EDTA 1%, SDS 1%, pH 5,0, tubing incubated 7 days in R2Am, 590 nm
[4] = selected acid 1% with H2O2 5%, EDTA 1%, SDS 1%, pH 5,0, 18 hours contact, room temperature, no agitation
[5] = acid 1% in H2O2 5%/EDTA 1%/SDS 1% solution, pH 5.0, 1 hour or 18 hours
[6] = selected acid 1% with H2O2 5%, EDTA 1%, SDS 1%, pH 5,0, 1 hour contact, room temperature, no agitation

Compound | RESULTS AFTER DISINFECTION Growth [1, 3] | acceptably performing acids: decontamination within the specified times [2, 5] | also measured
CC(N)C(=O)O (racemic) [DL-Alanine] | − |  | RESULTS AFTER DISINFECTION 18 hours (biofilm scale) [2, 4]: −
NC(Cc1ccc(O)cc1)C(=O)O (racemic) [DL-Tyrosine] | − | sufficient decontamination | 
O=C(O)CCC(=O)C(=O)O [2-Ketoglutaric Acid] |  |  | RESULTS AFTER DISINFECTION Growth ([1]; pH 5): −; RESULTS AFTER DISINFECTION 1 hour (biofilm scale) ([2]; pH 5): −; RESULTS AFTER DISINFECTION 18 hours (biofilm scale) ([2]; pH 5): −
CC(=O)O [Acetic Acid] | − |  | salt-forming acid tried against biofilm ([2]; acetic acid 0.1% to 1%): very efficient; RESULTS AFTER DISINFECTION 1 hour (biofilm scale) [2, 6]: −; RESULTS AFTER DISINFECTION 18 hours (biofilm scale) [2, 4]: −
O=C(O)CCCCC(=O)O [Adipic Acid] | − | sufficient decontamination | 
O=C(O)c1ccccc1 [Benzoic Acid] |  |  | RESULTS AFTER DISINFECTION Growth ([1]; pH 5): −; acceptably performing acids: decontamination within the specified times ([2]; pH 5): sufficient decontamination
O=C(O)C(=O)c1ccccc1 [Benzoylformic Acid] | − | sufficient decontamination | 
O=C(O)CN(CCO)CCO [Bicine] | − | sufficient decontamination | 
OB(O)O [Boric Acid (B(OH)3), Boric Acid] | − | sufficient decontamination | 
O=C(O)CCl [Chloroacetic Acid] |  |  | RESULTS AFTER DISINFECTION Growth ([1]; pH 5): −; RESULTS AFTER DISINFECTION 18 hours (biofilm scale) ([2]; pH 5): −
O=C(O)CC(O)(CC(=O)O)C(=O)O [Citric Acid] | − | sufficient decontamination | 
N[C@H](Cc1ccccc1)C(=O)O [D-Phenylalanine] | − |  | 
O=C(O)C(O)C(O)C(=O)O [D-Tartric acid] | − |  | 
O=C(O)C(Cl)Cl [Dichloroacetic Acid] | − |  | acceptably performing acids: decontamination within the specified times ([2]; pH 5): sufficient decontamination
O=CO [Formic Acid] |  |  | RESULTS AFTER DISINFECTION Growth ([1]; pH 5): −; acceptably performing acids: decontamination within the specified times ([2]; pH 5): sufficient decontamination
O=C(O)/C=C/C(=O)O [Fumaric Acid] | − |  | RESULTS AFTER DISINFECTION 1 hour (biofilm scale) [2, 6]: −; RESULTS AFTER DISINFECTION 18 hours (biofilm scale) [2, 4]: −
O=C[C@H](O)[C@@H](O)[C@H](O)[C@H](O)C(=O)O [Glucuronic Acid] | − | sufficient decontamination | 
N[C@@H](CCC(=O)O)C(=O)O [Glutamic Acid] | − | sufficient decontamination | 
NCC(=O)O [Glycine] | − | sufficient decontamination | 
O=C(O)CO [Glycolic Acid] | − |  | RESULTS AFTER DISINFECTION 1 hour (biofilm scale) [2, 6]: −; RESULTS AFTER DISINFECTION 18 hours (biofilm scale) [2, 4]: −

Compound | RESULTS AFTER DISINFECTION Growth [1, 3] | acceptably performing acids: decontamination within the specified times [2, 5] | also measured
O=C(O)CNCC(=O)O [Iminodiacetic Acid] | − |  | RESULTS AFTER DISINFECTION 1 hour (biofilm scale) [2, 6]: −; RESULTS AFTER DISINFECTION 18 hours (biofilm scale) [2, 4]: −
O=C1O[C@H]([C@@H](O)CO)C(O)=C1O [L-Ascorbic Acid] | − |  | RESULTS AFTER DISINFECTION 1 hour (biofilm scale) [2, 6]: ++++
N[C@@H](CC(=O)O)C(=O)O [L-Aspartic Acid] | − |  | RESULTS AFTER DISINFECTION 18 hours (biofilm scale) [2, 4]: −
N[C@@H](CO)C(=O)O [L-Serine] | − | sufficient decontamination | 
N[C@@H](Cc1c[nH]c2ccccc12)C(=O)O [L-Tryptophan] |  |  | RESULTS AFTER DISINFECTION Growth ([1]; pH 5): −; acceptably performing acids: decontamination within the specified times ([2]; pH 5): sufficient decontamination
CC(O)C(=O)O (centres unmarked) [Lactic Acid] | − |  | 
O=C(O)/C=C\C(=O)O [Maleic Acid] | − | sufficient decontamination | 
O=C(O)CC(O)C(=O)O (centres unmarked) [Malic Acid] | − | sufficient decontamination | 
O=C(O)CC(=O)O [Malonic Acid] | − |  | 
O=C(O)C(O)c1ccccc1 (centres unmarked) [Mandelic Acid] | − |  | salt-forming acid tried against biofilm ([2]; mandelic acid 1% to 10%): success; RESULTS AFTER DISINFECTION 1 hour (biofilm scale) [2, 6]: −; RESULTS AFTER DISINFECTION 18 hours (biofilm scale) [2, 4]: −
O=C(O)[C@@H](O)[C@H](O)[C@H](O)[C@@H](O)C(=O)O [Mucic Acid] | − |  | RESULTS AFTER DISINFECTION 1 hour (biofilm scale) [2, 6]: −; RESULTS AFTER DISINFECTION 18 hours (biofilm scale) [2, 4]: −
O=C(O)CN(CC(=O)O)CC(=O)O [Nitrilotriacetic Acid] | − | sufficient decontamination | 
O=C(O)C(=O)O [Oxalic Acid] | − | sufficient decontamination | 
NC(=O)C(=O)O [Oxamic Acid] | − | sufficient decontamination | 
O=C(O)Cc1ccccc1 [Phenylacetic Acid] | − | sufficient decontamination | 
N[C@@H](C(=O)O)c1ccccc1 [R-2-Phenylglycine] | − |  | 
CCCCCCCCCCCCOS(=O)(=O)[O-].[Na+] [SDS, Sodium dodecyl sulfate] |  |  | biofilm removal efficiency after 18 hours ([2]; SDS 0.15% with 6% hydrogen peroxide, HEEDTA 0.3%, acetic acid 0.1%, zinc sulfate heptahydrate 0.1%, pH adjusted to 5, 18 hours): perfect efficiency; biofilm removal activity after one hour ([2]; SDS 0.15% with 6% hydrogen peroxide, HEEDTA 0.3%, acetic acid 0.1%, zinc sulfate heptahydrate 0.1%, pH adjusted to 5, one hour, sulfate): very good activity; also recorded: did work well; cleaning efficacy within one hour ([2]; SDS 1%, within one hour): perfect cleaning efficacy; detergent capable of dislodging biofilms [2]: capable of dislodging biofilms
Sodium cocoyl sarcosinate [SCS] |  |  | detergent capable of dislodging biofilms [2]: capable of dislodging biofilms
Sodium n-decyl diphenylether disulfonate [SDDD] |  |  | detergent capable of dislodging biofilms [2]: capable of dislodging biofilms
Tetrasodium EDTA |  |  | chelator tried against biofilms [2]: a certain degree of success
